Literature values in patent US10988420B2, “Nanoparticles of layered double hydroxides containing non-polar compounds of plant origin, and method for the separation and selective release of said compounds” (UNIVERSIDAD DE GUADALAJARA, priority 2015, dated 2021).

Settings: lycopene not encapsulated; prior art (Meléndez-Martinez 2004)

temperature at which lycopene is decomposed: 100-150 °C
Structure (SMILES): CC(C)=CCC/C(C)=C/C=C/C(C)=C/C=C/C(C)=C/C=C/C=C(C)/C=C/C=C(C)/C=C/C=C(\C)CCC=C(C)C [lycopene]
